In ChEMBL document CHEMBL4145577, “Cytotoxic Anthracycline Metabolites from a Recombinant Streptomyces” (J Nat Prod, 2018):

Legend:
NCI-H460 = assay: Cytotoxicity against human NCI-H460 cells after 48 hrs by MTT assay; format: functional, cell-based; settings: NCI-H460, 48 h
MDA-MB-231 = assay: Cytotoxicity against human MDA-MB-231 cells after 48 hrs by MTT assay; format: functional, cell-based; settings: MDA-MB-231, 48 h
MDA-MB-435 = assay: Cytotoxicity against human MDA-MB-435 cells after 48 hrs by MTT assay; format: functional, cell-based; settings: MDA-MB-435, 48 h
HCT-116 = assay: Cytotoxicity against human HCT116 cells after 48 hrs by MTT assay; format: functional, cell-based; settings: HCT-116, 48 h
MCF-10A = assay: Cytotoxicity against human MCF10A cells after 48 hrs by MTT assay; format: cell-based
HepG2 = assay: Cytotoxicity against human HepG2 cells after 48 hrs by MTT assay; format: functional, cell-based; settings: HepG2, 48 h

Structure (SMILES) | IC50 (NCI-H460) [nM] | IC50 (MDA-MB-231) [µM] | IC50 (MDA-MB-435) [µM] | IC50 (HCT-116) [µM] | IC50 (MCF-10A) [µM] | IC50 (HepG2) [µM]
CC[C@@]1(O)C[C@H](O)c2c(O)c3c(c(O)c2[C@H]1C(=O)OC)C(=O)c1cccc(O)c1C3=O | 10000 | 13.2 | 9.2 | 9.6 | 7.1 | 13.5
CC[C@@]1(O)C[C@H](O[C@H]2CC[C@H](O[C@H]3C[C@H](O)[C@H](O[C@H]4CC[C@H](O)[C@H](C)O4)[C@H](C)O3)[C@H](C)O2)c2c(O)c3c(c(O)c2[C@H]1O)C(=O)c1cccc(O)c1C3=O | 1600 | 24.5 | 3.1 | 6.1 | 6.7 | 5.7
CC[C@@]1(O)C[C@H](O[C@H]2C[C@H](O)[C@H](O[C@H]3C[C@H](O)[C@H](O)[C@H](C)O3)[C@H](C)O2)c2c(O)c3c(c(O)c2[C@H]1O)C(=O)c1cccc(O)c1C3=O | 600 | 10.2 |  | 13.2 | 2.5 | 2
CC[C@@]1(O)C[C@H](O[C@H]2CC[C@H](O[C@H]3CC[C@H](O[C@H]4CC[C@H](O)[C@H](C)O4)[C@H](C)O3)[C@H](C)O2)c2c(O)c3c(c(O)c2[C@H]1C(=O)OC)C(=O)c1cccc(O)c1C3=O | 10000 | 4.5 | 2.7 | 0.2 | 1.4 | 1.7
CC[C@]1(O)Cc2c(O)c3c(c(O)c2[C@@H](O[C@H]2C[C@H](O)[C@H](O[C@H]4C[C@H](O)[C@H](O[C@H]5CC[C@H](O)[C@H](C)O5)[C@H](C)O4)[C@H](C)O2)C1)C(=O)c1c(O)cccc1C3=O | 900 | > 50 | 6.2 | 3.1 | 16.9 | 11.3
CC[C@@]1(O)C[C@H](O[C@H]2C[C@H](O)[C@H](O[C@H]3C[C@H](O)[C@H](O[C@H]4C[C@H](O)[C@H](O)[C@H](C)O4)[C@H](C)O3)[C@H](C)O2)c2c(O)c3c(c(O)c2[C@H]1O)C(=O)c1cccc(O)c1C3=O | 4800 | 40.2 | 7 | 9.8 | 3.7 | 8
CC[C@@]1(O)C[C@H](O[C@H]2C[C@H](O)[C@H](O[C@H]3C[C@H](O)[C@H](O[C@H]4CCC(=O)[C@H](C)O4)[C@H](C)O3)[C@H](C)O2)c2c(O)c3c(c(O)c2[C@H]1O)C(=O)c1cccc(O)c1C3=O | 380 | 5.4 | 5.6 | 1.4 | 2 | 0.9
CC[C@@]1(O)C[C@H](O[C@H]2C[C@H](O)[C@H](O[C@H]3C[C@H](O)[C@H](O[C@H]4CC[C@H](O)[C@H](C)O4)[C@H](C)O3)[C@H](C)O2)c2c(O)c3c(c(O)c2[C@H]1O)C(=O)c1cccc(O)c1C3=O | 700 | 7.4 |  | 5 | 3.4 | 1.5
CC[C@@]1(O)C[C@H](O[C@H]2C[C@H](O)[C@H](O[C@H]3CC[C@H](O[C@H]4CC[C@H](O)[C@H](C)O4)[C@H](C)O3)[C@H](C)O2)c2c(O)c3c(c(O)c2[C@H]1O)C(=O)c1cccc(O)c1C3=O | 1300 | 10.4 | 11.7 | 32.8 | 5.2 | 5.5
CC[C@@]1(O)C[C@H](O[C@H]2CC[C@H](O[C@H]3C[C@H](O)[C@H](O[C@H]4CC[C@H](O)[C@H](C)O4)[C@H](C)O3)[C@H](C)O2)c2c(O)c3c(c(O)c2[C@H]1C(=O)OC)C(=O)c1cccc(O)c1C3=O | 5700 | 9.3 | 1.9 | 3.6 | 4.6 | 6.4
CC[C@@]1(O)C[C@H](O[C@H]2C[C@H](O)[C@H](O[C@H]3CC[C@H](O[C@H]4CC[C@H](OC5CC[C@H](O)[C@H](C)O5)[C@H](C)O4)[C@H](C)O3)[C@H](C)O2)c2c(O)c3c(c(O)c2[C@H]1O)C(=O)c1cccc(O)c1C3=O (stereo partly drawn) | 2200 | 10.1 | 37.9 | 7.2 | 5.7 | 8.5
CC[C@@]1(O)C[C@H](O[C@H]2C[C@H](O)[C@H](O[C@H]3CC[C@H](O[C@H]4C[C@H](O)[C@H](O)[C@H](C)O4)[C@H](C)O3)[C@H](C)O2)c2c(O)c3c(c(O)c2[C@H]1O)C(=O)c1cccc(O)c1C3=O | 2600 | 19.2 | 5.9 | 5.8 | 10.5 | 6.2
CC[C@]1(O)Cc2c(O)c3c(c(O)c2[C@@H](O[C@H]2C[C@H](O)[C@H](O[C@H]4CC[C@H](O[C@H]5CC[C@H](O)[C@H](C)O5)[C@H](C)O4)[C@H](C)O2)C1)C(=O)c1c(O)cccc1C3=O | 5400 | > 50 | 4.2 | 0.3 | 2.2 | 8.6
CC[C@@]1(O)C[C@H](O[C@H]2CC[C@H](O[C@H]3C[C@H](O)[C@H](O[C@H]4CCC(=O)[C@H](C)O4)[C@H](C)O3)[C@H](C)O2)c2c(O)c3c(c(O)c2[C@H]1O)C(=O)c1cccc(O)c1C3=O | 2400 | 23.9 | 3.9 | 5.4 | 10.4 | 9.3
CC[C@@]1(O)CCc2c(O)c3c(c(O)c2[C@H]1O)C(=O)c1cccc(O)c1C3=O | 7300 | 10.9 | 5.7 | 6 | 11.9 | 13
COc1cccc2c1C(=O)c1c(O)c3c(c(O)c1C2=O)C[C@@](O)(C(=O)CO)C[C@@H]3O[C@H]1C[C@H](N)[C@@H](O)[C@H](C)O1 [EPIRUBICIN] | 20 | 0.9 | 0.7 | 0.4 | 0.1 | 
